Experimental findings from patent US20170332627A1, “AGROCHEMICAL RESINATES FOR AGRICULTURAL APPLICATIONS” (priority 2014, published 2017) are described below.

The structures appear in SMILES notation.

Data set [1] in a line: Soil test (potting soil/sand, tap water) for release profile. The class given is physicochemical. The text has this: To further explore behavior of the IER-AAI complex in conditions found in the soil, a soil test was developed to mimic in-vivo conditions by mixing potting soil with sand, based on the understanding that most soil in the field is not of the same quality as premium potting soil, but instead typically contains more clay or sand. The samples run through the soil test were WG01, WG02, WG05-WG10.
In this experiment, potting soil was mixed with sand in a 19:31 ratio. Then the desired amount of IER-AAI complex (the amount of resin that would allow the total AAI to be 25 mg) was mixed homogenously in with the soil. The Buchner funnel was fitted with filter paper and the filter paper was wet with a little bit of tap water. The Buchner funnel was then placed in an Erlenmeyer flask with a side arm fitted with a rubber adaptor. The side arm was hooked up to a vacuum and the vacuum turned on. Next, the sand/soil/IER-AAI mixture was poured into the Buchner funnel. 10 mL of tap water was poured evenly over the sand/soil/IER-AAI mixture and flooding was observed. Once the water drained into the Erlenmeyer flask, the Buchner funnel was removed and the water transferred into a glass vial. The Buchner funnel was replaced back on the Erlenmeyer flask, the vacuum turned back on, and another 10 mL of tap water was poured evenly over the sand/soil/IER-AAI mixture. This process was repeated until 10×10 mL fractions were collected. Each fraction was then analyzed for UV absorbance at 200-400 nm using a ThermoScientific model Evolution 201, diluting samples when necessary. Comparing the absorbance values against a calibration curve, the amount of AAI in each fraction was calculated.
The percent loading and release profile for each AAI was obtained based on the protocols described in Examples 14 and 15 respectively, except that the AAI content was held constant at 20 mg instead of 25 mg.

Data set [2] is described as follows: Sand column test, release of chloramben with DI water then 2M NaOH. The class given is physicochemical. The following applies: for release profile in sand column (FIG. 1): result in words. The text has this:
To assess the extended release properties of our WDG and HSC formulations (prepared in accordance with Example 7) we employed a sand column method as described below, where the results of the sand column test can be extrapolated to represent in vivo soil conditions.
Sand column tests were run first with water and then with a 2M NaOH ionic solution. […] The rest of the sand column tests were then run with 2M NaOH; we selected the hydroxyl ion as a representative anion to illustrate the release of the AAI through ion exchange.
First, the sand to be used in the sand column was weighed out into a centrifuge tube. Then the sand was wetted with DI water until flowable and vortexed to mix. Next, the sand was introduced into a Lab-Crest Buret fitted with a Stopcock. DI water was then passed through the sand column to remove any sand that had stuck to the side of the buret. Excess water was drained, until the water level was just at the top of the sand. In a separate small centrifuge tube, the sand was mixed with the experimental sample, and this mixture was added to the top of the sand column. Chloramben control and samples formulated as WG01, WG02, and HSC01 (as described above) were tested.
For each Sample, the experiment was conducted as follows. […] 7×10 mL fractions were collected from the column in appropriately sized culture tubes at 10 mL fractions. The stopcock was closed as the water level reached the top of the sand. […] 7×10 mL fractions were collected in appropriately sized culture tubes. Each fraction was then analyzed for UV absorbance at 200-400 nm using a ThermoScientific model Evolution 201, diluting samples when necessary. Comparing the absorbance values against a calibration curve, the amount of AAI in each fraction was calculated.
The results of these experiments are shown in the graph in FIG. 1.
Fractions 1-7 were run with deionized water flushing through the column, while fractions 8-14 were run with 2 M NaOH flushing through the column. The arrow indicates where the changeover from DI water to NaOH occurred. […] Only when there was a counterion present for exchange (i.e. OH^− in the NaOH), did the chloramben in the test samples start to release more quickly.

[3] abbreviates: imidacloprid, 20 mg total AAI, FIG. 8.
Setting [4] is: benzoic acid, 25 mg total AAI, 10x10 mL tap water, FIG. 2.
Where [5] appears, read: benzoic acid, 25 mg total AAI, 10x10 mL tap water, FIG. 3.
[6] abbreviates: benzoic acid, 25 mg total AAI, HSC comparison, FIG. 5.
Setting [7] is: dicamba, 20 mg total AAI, FIG. 6.
[8] abbreviates: nicosulfuron, 20 mg total AAI, FIG. 7.
Where [9] appears, read: control, no eluent named in head.
The mark [10] stands for this setting: whole run, DI water then 2M NaOH, same value under both heads.
The mark [11] stands for this setting: chloramben, 25 mg total AAI, 10x10 mL tap water, FIG. 4.
Where [12] appears, read: gibberellic acid, 20 mg total AAI, FIG. 9.

As for `O=[N+]([O-])NC1=NCCN1Cc1ccc(Cl)nc1` [ICD Control, Imidacloprid], in data set [1] (setting [3]), the “Percent Release” value is reported as 98% and the “Total AAI Released” value is 20 mg.

On to `O=C(O)c1ccccc1` [Benzoic Acid Control, Benzoic acid], for which, in data set [1] (setting [4]), the “Percent Released” value is reported as 97% and the “Total AAI Released” value is 24 mg. For the same compound, in data set [1] (setting [5]), the “Percent Release” value was found to be 97% and the “Total AAI Released” value is 24 mg. For the same compound, in data set [1] (setting [6]), the “Percent Release” value turned out to be 97% and the “Total AAI Released” value is 24 mg.

With `COc1c(Cl)ccc(Cl)c1C(=O)O` [Dicamba Control, Dicamba], in data set [1] (setting [7]), the “Percent Release” value is 100% and the “Total AAI Released” value turned out to be 20 mg.

With `COc1cc(OC)nc(NC(=O)NS(=O)(=O)c2ncccc2C(=O)N(C)C)n1` [NSN Control, Nicosulfuron], in data set [1] (setting [8]), the “Percent Release” value is listed as 52% and the “Total AAI Released” value was determined as 10 mg.

For the compound `Nc1cc(Cl)cc(C(=O)O)c1Cl` [Chloramben Control, Chloramben], in data set [2] (setting [9]), the “% chloramben released in first two fractions” value is 44% and the “Total mg chloramben released” value came out at 20.92 mg. Also, the “release profile in sand column (FIG. 1)” value in data set [2] is “released more quickly”. In addition, the “release profile in sand column (FIG. 1)” value in data set [2] (listed as control chloramben powder) is given as “released very quickly”. In data set [2] (setting [10]), the “% chloramben remaining” value amounted to 30% and the “% total chloramben released” value stood at 70%. Also, in data set [1] (setting [11]), the “Percent Release” value came out at 71% and the “Total AAI Released” value amounted to 18 mg.

For the compound `C=C1C[C@]23C[C@@]1(O)CC[C@H]2[C@@]12C=C[C@H](O)[C@@](C)(C(=O)O1)[C@H]2[C@@H]3C(=O)O` [GA Control, Gibberellic Acid], in data set [1] (setting [12]), the “Percent Release” value was 99% and the “Total AAI Released” value stood at 20 mg.
